Experimental findings from patent publication US20230043863A1, “HETEROAROMATIC DERIVATIVES FOR USE AS REGULATOR, PREPARATION METHOD THEREFOR AND USE THEREOF” (JIANGSU HANSOH PHARMACEUTICAL GROUP CO., LTD., priority 2018, published 2023) are described below.

The test system of this experiment is C57BL/6 mouse colitis model induced by DSS. In words: C57BL/6 mouse colitis model induced by DSS, daily disease index. The format is in vivo. The conditions noted are these: po, 216 h, 10 mg/kg p.o. BID, Day 0-9, vs vehicle group, read-out: reduction ratio of DAI AUC. As to the method: To evaluate the drug efficacy of the embodiment compound on the C57BL/6 mouse colitis model induced by DSS (dextran sulfate sodium).
According to the weight of the animal, BioBook software was used to randomly group the animals on day −1 to ensure that the weight values of each group of animals were similar to reduce deviation, and the grouping and dosing regimen are shown in the following Table.
Drinking water containing DSS: an appropriate amount of DSS powder was dissolved in the autoclaved drinking water to prepare a 2% DSS solution.
On day −1, the animals were equally divided into 12 groups with 10 animals in each group. (Refer to Table 1 for specific grouping scheme)
From 9:00 on day 0 to 9:00 on day 6, the mice in groups 2 to 9 were given 2% DSS aqueous solution for 6 days (from day 0 to day 6), after which the mice were allowed to freely drink normal water for 3 days (from 9:00 on day 6 to before necropsy on day 9). The day of modeling was counted as day 0. The DSS aqueous solution was wrapped in tin foil to protect it from light. The DSS aqueous solution was replaced every 2 days.
The mice in group 1 are allowed to drink normal water freely for 9 days (from 9:00 on day 0 to before necropsy on day 9).
The recording frequency was once a day, and 4 levels were rated according to the following standards:
Bloody stool (0: negative; 4: positive);
Stool score (0: normal; 2: loose stool; 4: diarrhea)
Daily Disease Index (DAI) was obtained by dividing the sum the scores of the above 3 parts by 3. DAI-time (day) curve based on the daily DAI score was plotted, and the peak area (AUC) under the curve was calculated. The reduction ratio of DAI AUC was calculated by comparing the administration group with the vehicle group, with a calculation formula of (DAI AUCadministration group-DAI AUCvehicle)/DAI AUCVehicle×100%
On to `Cc1cc(Nc2nc(N[C@@H]3C[C@H]4CCC[C@@H](C3)N4C(=O)c3ccccn3)nc3sccc23)n[nH]1` [Embodiment 260, ((3-exo)-3-((4-((5-methyl-1H-pyrazol-3-yl)amino)thieno[2,3-d]pyrimidin-2-yl)amino)-9-azabicyclo[3.3.1]non-9-yl)(pyridin-2-yl)methanone], for which the change in vivo at 10 mg/kg is -23.4%. The same measure for `Cc1cc(Nc2nc(N[C@@H]3C[C@H]4CCC[C@@H](C3)N4C(=O)CN3CCOCC3)nc3sccc23)n[nH]1` [Embodiment 246, 1-((3-exo)-3-((4-((5-methyl-1H-pyrazol-3-yl)amino)thieno[2,3-d]pyrimidin-2-yl)amino)-9-azabicyclo[3.3.1]non-9-yl)-2-morpholinoethane-1-one]: -38.6%; for `Cc1cc(Nc2nc(N[C@@H]3C[C@H]4CC[C@@H](C3)N4CCC#N)nc3ccsc23)n[nH]1` [Embodiment 60, 3-((3-exo)-3-((4-((5-methyl-1H-pyrazol-3-yl)amino)thieno[3,2-d]pyrimidin-2-yl)amino)-8-azabicyclo[3.2.1]oct-8-yl)propionitrile]: -20.8%. With `COc1ccc2c(Nc3cc(C)[nH]n3)nc(N[C@@H]3C[C@H]4CC[C@@H](C3)N4CCC#N)nc2c1` [Embodiment 169, 3-((3-exo)-3-((7-methoxyl-4-((5-methyl-1H-pyrazol-3-yl)amino)quinazolin-2-yl)amino)-8-azabicyclo[3.2.1]oct-8-yl)propionitrile], the change in vivo at 10 mg/kg is -34.3%. Take `Cc1cc(Nc2nc(N[C@@H]3C[C@H]4CC[C@@H](C3)N4S(=O)(=O)N3CC(C#N)C3)nc3cc(Cl)ccc23)n[nH]1` [Embodiment 214]: the change in vivo at 10 mg/kg is -28.9%.

For the compound `Cc1cc(Nc2nc(N[C@@H]3C[C@H]4CCC[C@@H](C3)N4CCC#N)nc3scnc23)n[nH]1` [Embodiment 278, 3-((3-exo)-3-((7-((5-methyl-1H-pyrazol-3-yl)amino)thiazolo[5,4-d]pyrimidin-5-yl)amino)-9-azabicyclo[3.3.1]non-9-yl)propionitrile], the change in vivo at 10 mg/kg was -34.9%. The result for `CNCC(=O)N1[C@@H]2CCC[C@H]1C[C@H](Nc1nc(Nc3cc(C)[nH]n3)c3ccsc3n1)C2` [Embodiment 247, 1-((3-exo)-3-((4-((5-methyl-1H-pyrazol-3-yl)amino)thieno[2,3-d]pyrimidin-2-yl)amino)-9-azabicyclo[3.3.1]non-9-yl)-2-(methylamino)-ethane-1-one] reads -22.1%; that for `Cc1cc(Nc2nc(N[C@@H]3C[C@H]4CC[C@@H](C3)N4S(=O)(=O)N3CC(C#N)C3)nc3ccccc23)n[nH]1` [Embodiment 213, 1-(((3-exo)-3-((4-((5-methyl-1H-pyrazol-3-yl)amino)quinazolin-2-yl)amino)-8-azabicyclo[3.2.1]oct-8-yl)sulfonyl)azetindin-3-formonitrile], -24.4%; that for `Cc1cc(Nc2nc(N[C@@H]3C[C@H]4CC[C@@H](C3)N4CCC#N)nc3cc(Br)ccc23)n[nH]1` [Embodiment 170, 3-((3-exo)-3-((7-bromine-4-((5-methyl-1H-pyrazol-3-yl)amino)quinazolin-2-yl)amino)-8-azabicyclo[3.2.1]oct-8-yl)propionitrile], -27.9%.
